Measured values: PubChem BioAssay (NCI)
“And” between values parts separate entries of the source, which are not always exact repeats. Equal values may be shown once.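 Five compound concentrations were applied to cells in 96-well plates for 48 hours; endpoints were derived by simple linear interpolation of the resulting dose-response curve. The concentration for 50% growth inhibition is given as GI50. At the TGI there is no net growth.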

What was measured:
Experiment in all cases: inhibition of tumour cell growth, NCI panel, 48 h
ACHN renal = test system: ACHN renal
UACC-257 melanoma = test system: UACC-257 melanoma
SW-620 colon = test system: SW-620 colon
HCT-15 colon = test system: HCT-15 colon
A549 NSCLC = test system: A549 NSCLC
SK-MEL-28 melanoma = test system: SK-MEL-28 melanoma
CCRF-CEM leukemia = test system: CCRF-CEM leukemia
NCI-H226 lung = test system: NCI-H226 lung
NCI-H460 lung = test system: NCI-H460 lung
MDA-MB-435 = test system: MDA-MB-435

Compound | TGI (ACHN renal) [µM] | TGI (UACC-257 melanoma) [µM] | TGI (SW-620 colon) [µM] | TGI (HCT-15 colon) [µM] | TGI (A549 NSCLC) [µM] | TGI (SK-MEL-28 melanoma) [µM] | TGI (CCRF-CEM leukemia) [µM] | TGI (NCI-H226 lung) [µM] | TGI (NCI-H460 lung) [µM] | GI50 (ACHN renal) | GI50 (UACC-257 melanoma) [µM] | GI50 (HCT-15 colon) | GI50 (A549 NSCLC) | GI50 (SK-MEL-28 melanoma) [µM] | GI50 (CCRF-CEM leukemia) | GI50 (NCI-H226 lung) [µM] | GI50 (NCI-H460 lung) | GI50 (SW-620 colon) | GI50 (MDA-MB-435) [µM] | TGI (MDA-MB-435) [µM]
COC(=O)/C=C/c1c(CC=C(C)C)ncn1C | > 100 | > 100 | > 100 | > 100 | > 100 | > 100 | > 100 | > 89.8 | > 100 |  |  |  |  |  |  |  |  |  |  | 
CNS(=O)(=O)NNS(=O)(=O)c1ccc(Br)cc1 | > 100 | > 100 | > 100 | > 100 | > 100 | > 100 | > 100 | > 100 | > 100 |  |  |  |  |  |  |  |  |  |  | 
Cc1c(/C=N/NC(=O)c2ccc(Cl)cc2)c(=O)n(-c2ccccc2)n1C | > 100 | > 100 | > 100 | > 100 | > 100 | > 100 | > 100 | > 100 | > 100 |  |  |  |  |  |  |  |  |  |  | 
CCCO/S(=N\S(=O)(=O)c1ccccc1)c1ccccc1[N+](=O)[O-] (stereo not drawn) | > 100 | > 100 | > 100 | > 100 | > 100 | > 100 | > 100 | > 100 | > 100 |  |  |  |  |  |  |  |  |  |  | 
O=C(/C=C/c1ccccc1Cl)NC1C=Nc2ccc([N+](=O)[O-])cc2NC1 (stereo not drawn) | > 100 | > 100 | 18.2 | > 100 | > 100 | > 100 | 84.8 | > 100 | > 100 |  |  |  |  |  |  |  |  |  |  | 
CCC1CCc2c(c(=O)oc3c2cc(OC)c2cccc(OC)c23)C1 (stereo not drawn) | > 100 | > 100 |  | > 100 | > 100 | > 100 | > 100 | > 100 | > 100 |  |  |  |  |  |  |  |  |  |  | 
COc1c[c]([Hg][O]C(C)=O)c(OC)c(NC(=O)CC(C)=O)[c]1[Hg][O]C(C)=O | 8.53 | 7.46 |  |  | 45.9 | 3.61 | 5.43 | 42.9 | 39 | 3.01 µM | 2.73 | 3.11 µM | 26 µM | 1.83 | 1.75 µM | 19.5 | 16.3 µM |  |  | 
COC1(OC)CC2C(=O)N(Cc3ccccc3)C1C=C2S(=O)(=O)c1ccccc1 (stereo not drawn) | 44.4 | 34.5 | 28.5 |  | 64.2 | 31.9 | 44.9 | 47.3 | 38.6 |  |  |  |  |  |  |  |  |  |  | 
O=C(CSC1CCc2ccccc21)N/N=C/c1ccccc1O (stereo not drawn) | 20 |  | 81.4 | > 100 | > 100 | > 100 | 45.4 | 35.8 | 14.6 | 2.67 µM |  | 2.27 µM | 4.81 µM | 4.72 | 1.64 µM | 3.11 | 3.4 µM | 5.66 µM | 5.87 | > 100
Cc1nc([N+](=O)[O-])cn1CC(=N)N | > 100 | > 100 | > 100 | > 100 | > 100 | > 100 | > 100 | > 100 | > 100 |  |  |  |  |  |  |  |  |  |  | 
CCOP(=O)(OCC)OC1C=CC2CCC1C2 (stereo not drawn) | > 100 | > 100 |  | > 100 | > 100 | > 100 | > 100 | > 100 | > 100 |  |  |  |  |  |  |  |  |  |  | 
N#CC(C(=O)C(=O)Nc1ccc(Cl)cc1)c1ccccc1 (stereo not drawn) | > 100 | > 100 | > 100 | > 100 | > 100 | > 100 | > 100 | > 100 | > 100 |  |  |  |  |  |  |  |  |  |  | 
CC(C)C(=O)NS(=O)(=O)c1ccccc1 | > 100 | > 100 | > 100 |  | > 100 | > 100 | > 100 | > 100 | > 100 |  |  |  |  |  |  |  |  |  |  | 
COC(=O)[C@@H](C)C[C@H](Cc1ccccc1)NC(=O)c1csc([C@@H](C[C@H](C(C)C)N(C)C(=O)[C@@H](NC(=O)[C@H]2CCCCN2C)C2CCCCC2)OC(C)=O)n1 | > 25 |  | > 25 | > 25 | > 25 |  | 5.8 | > 25 | > 25 | 0.000746 µM and 0.0025 µM |  | 0.00102 µM and 0.0025 µM | 0.0022 µM and 0.0025 µM |  | 0.00195 µM and 0.0025 µM | 0.0025 | 0.000321 µM and 0.0025 µM | 0.000424 µM and 0.0025 µM | < 0.0001 | 0.000368
C/C(CC(=O)Nc1cccc(Cl)c1C)=N\NC(=O)c1ccncc1 |  | > 100 | > 100 |  | > 100 | > 100 | > 100 | > 100 | > 100 |  |  |  |  |  |  |  |  |  |  | 
COc1ccc(CCNC(=O)c2ccc(NC3=C(Cl)C(=O)N(Cc4ccccc4)C3=O)cc2)cc1OC | > 100 | 48.6 |  | > 100 | > 100 | > 100 | 3.71 | > 100 | > 100 | 43 µM | 20.3 | 4.1 µM | 33.1 µM | 15.1 | 0.48 µM | 10 | 32 µM |  | 15.8 | 43.8
O=[N+]([O-])c1ccc(N2N=C(c3ccc(NCc4nc5ccccc5[nH]4)cc3)CC2c2ccco2)cc1 (stereo not drawn) | > 100 |  | > 100 | 84.9 | > 100 | > 100 | > 100 |  | > 100 |  |  |  |  |  |  |  |  |  |  | 
Cc1cc(S(=O)(=O)O)c(NC(=O)C(=O)Cc2cc(=O)oc3cc(O)ccc23)cc1Cl | > 100 | > 100 | > 100 | > 100 | > 100 | > 100 | > 100 | > 100 | > 100 |  |  |  |  |  |  |  |  |  |  | 
CCCN1CN(C(C(=O)N[C@@H]2C(=O)N3C2SC(C)(C)C3C(=O)O)c2ccc(O)cc2)CSC1=S (stereo partly drawn) | > 100 | > 100 |  | > 100 |  | > 100 | > 100 |  | > 100 |  |  |  |  |  |  |  |  |  |  | 
CN[C@@H](C)[C@@H](NC)c1ccccc1 | > 100 | > 100 | > 100 | > 100 | > 100 | > 100 | > 100 | > 100 | > 100 |  |  |  |  |  |  |  |  |  |  | 
Cc1cccc(C)c1NC(=O)C(=O)C(C(=O)c1ccccc1-c1ccccc1)C1OC(=O)c2ccccc21 (stereo not drawn) | > 100 | > 100 | 65.2 |  | 72.5 | 61.4 | > 100 | 30.3 | 78.2 |  |  |  |  |  |  |  |  |  |  | 
